US20150086557A1, “NOVEL INTEGRIN alpha9 beta1 LIGAND AND USES THEREOF” (OSAKA UNIVERSITY, priority 2012, published 2015)

How the values were obtained:
[1] = test system: A549 cells; experiment: Cell adhesion assay on coated plates (A549 cells); type: cell-based, human; conditions: data not shown
[2] = target: T1, integrin α9β1 (Homo sapiens, UniProt P05556+Q13797); experiment: Direct integrin binding assay with recombinant integrin α9β1
T1 construct: A cDNA encoding the extracellular region of human integrin α9; An expression vector for the extracellular region of integrin β1; ACID coiled-coil (Velcro) peptide; FLAG; BASE coiled-coil (Velcro) peptide; made in house; host or cells: FreeStyle 293 Expression System (293-F cells)
T1 sequence (Q13797 30-981 limits assumed): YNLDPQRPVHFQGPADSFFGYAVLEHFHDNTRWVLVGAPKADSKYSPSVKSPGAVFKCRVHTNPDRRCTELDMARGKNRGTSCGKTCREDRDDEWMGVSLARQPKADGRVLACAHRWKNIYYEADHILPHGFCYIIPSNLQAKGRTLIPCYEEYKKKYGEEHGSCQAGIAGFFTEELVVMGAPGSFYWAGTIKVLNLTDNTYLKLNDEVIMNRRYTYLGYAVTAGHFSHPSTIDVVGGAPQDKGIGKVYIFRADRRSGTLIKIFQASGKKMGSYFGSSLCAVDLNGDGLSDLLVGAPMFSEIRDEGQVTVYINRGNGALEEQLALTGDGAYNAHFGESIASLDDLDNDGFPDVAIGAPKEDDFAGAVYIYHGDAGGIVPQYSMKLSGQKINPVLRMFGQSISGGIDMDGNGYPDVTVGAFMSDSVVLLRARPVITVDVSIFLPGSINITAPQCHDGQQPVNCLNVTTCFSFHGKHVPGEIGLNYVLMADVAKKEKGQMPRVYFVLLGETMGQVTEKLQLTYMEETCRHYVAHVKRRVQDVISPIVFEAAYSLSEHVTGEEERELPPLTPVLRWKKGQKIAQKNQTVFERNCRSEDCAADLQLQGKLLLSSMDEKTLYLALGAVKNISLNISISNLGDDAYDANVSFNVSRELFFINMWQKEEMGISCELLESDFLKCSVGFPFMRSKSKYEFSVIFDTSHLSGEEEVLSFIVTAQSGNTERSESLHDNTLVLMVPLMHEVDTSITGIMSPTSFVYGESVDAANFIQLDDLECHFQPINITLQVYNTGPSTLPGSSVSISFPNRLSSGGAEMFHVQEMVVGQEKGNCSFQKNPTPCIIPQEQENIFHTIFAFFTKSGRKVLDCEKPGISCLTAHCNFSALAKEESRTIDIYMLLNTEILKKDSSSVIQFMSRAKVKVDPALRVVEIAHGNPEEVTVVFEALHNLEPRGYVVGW
T1 sequence (P05556 21-728 limits assumed): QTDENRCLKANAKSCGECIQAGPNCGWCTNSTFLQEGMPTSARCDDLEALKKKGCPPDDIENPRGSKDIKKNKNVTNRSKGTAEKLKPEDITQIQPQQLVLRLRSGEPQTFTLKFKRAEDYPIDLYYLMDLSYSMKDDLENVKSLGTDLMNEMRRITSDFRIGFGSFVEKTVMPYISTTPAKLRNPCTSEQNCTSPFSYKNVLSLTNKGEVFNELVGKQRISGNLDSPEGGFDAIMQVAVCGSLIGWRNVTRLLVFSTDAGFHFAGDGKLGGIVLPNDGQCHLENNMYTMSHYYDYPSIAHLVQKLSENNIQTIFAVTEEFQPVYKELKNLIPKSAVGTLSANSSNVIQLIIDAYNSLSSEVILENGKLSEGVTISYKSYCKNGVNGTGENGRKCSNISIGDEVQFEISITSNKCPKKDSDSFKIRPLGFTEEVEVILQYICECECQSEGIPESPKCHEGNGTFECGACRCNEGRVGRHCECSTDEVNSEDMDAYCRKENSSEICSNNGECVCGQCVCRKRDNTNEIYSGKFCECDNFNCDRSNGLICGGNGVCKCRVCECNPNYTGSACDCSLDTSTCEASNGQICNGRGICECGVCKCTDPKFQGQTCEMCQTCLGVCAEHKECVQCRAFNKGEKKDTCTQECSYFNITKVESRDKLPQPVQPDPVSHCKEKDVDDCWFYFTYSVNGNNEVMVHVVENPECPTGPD
From the text: A cDNA encoding the extracellular region of human integrin α9 was amplified by RT-PCR from total RNA extracted from RD cells and cloned into pBluescript KS(+). After verification of the nucleotide sequence, an error-free cDNA fragment was inserted into pcDNA-ACID-FLAG (Nishiuchi, R., Takagi, J., Hayashi, M., Ido, H., Yagi, Y., Sanzen, N., Tsuji, T., Yamada, M., and Sekiguchi, K. (2006) Matrix Biol. 25, 189-197). An expression vector for the extracellular region of integrin β1 was provided by Dr. Junichi Takagi (Takagi, J., Erickson, H. P., and Springer, T. A. (2001) Nat. Struct. Biol. 8, 412-416). The recombinant integrins were produced using the Freestyle™ 293 Expression System (Invitrogen) and purified as described in the above-mentioned publication Matrix Biol. 25, 189-197, (2006).
An integrin binding assay was performed as described in the above-mentioned publication Matrix Biol. 25, […], (2006). In some experiments, integrins were preincubated with synthetic peptides at various concentrations to evaluate the inhibitory activities of the synthetic peptides. The apparent dissociation constants were determined as described in Nishiuchi, R., Murayama, O., Fujiwara, H., Gu, J., Kawakami. T., Aimoto, S., Wada, Y., and Sekiguchi, K. (2003) J. Biochem, 134, 497-504.
To corroborate the role of integrin α9β1 as an adhesion receptor for polydom, a direct integrin binding assay was performed, using recombinant integrin α9β1. Plates were coated with full-length polydom, pol-N, pol-C, plasma fibronectin (pFN) or cellular fibronectin (cFN), and recombinant integrin α9β1 was added and allowed to bind thereto in the presence of 1 mM MnCl2 or 10 mM EDTA. BSA was used as a negative control. The bound integrin was quantified using a biotinylated anti-Velcro antibody and HRP-conjugated streptavidin.
Integrin α9β1 is known to bind to the third fibronectin type III domain of tenascin-C (TNfn3) and the osteopontin N-terminal half (OPN-Nhalf). These integrin α9β1 ligands were recombinantly expressed as GST fusion proteins and then purified. In the GST fusion proteins, the RGD cell-adhesive motifs were replaced with RAA to nullify their abilities to interact with RGD-binding integrins, such as those containing the αv subunit, Microtiter plates were coated with pol-C (10 nM), GST-TNfn3-RAA (100 nM) or GST-OPN-Nhalf-RAA (100 nM), and integrin α9β1 was added and allowed to bind thereto in the presence of 1 mM MnCl2.
To locate the integrin α9β1-binding site within polydom, a series of five N-terminal deletion mutants of polydom (pol-C, ΔEGF6, ΔPTX, ΔCCP20 and ΔCCP21; see FIG. 9) were constructed. Their binding activities for integrin α9β1 were evaluated in the presence of 1 mM MnCl2 or 10 mM EDTA using microtiter plates coated with these recombinant proteins (10 nM).
Among the 34 CCP domains within polydom, CCP21 is unique because it contains about 40 extra amino acids as compared with the other CCP domains. An assay to examine whether this extra region (hereinafter referred to as “extra segment”) within CCP21 is involved in binding to integrin α9β1 was performed, Microtiter plates were coated with a GST-CCP21 fusion protein, a D2628-S2664 deletion mutant of the GST-CCP21 fusion protein (CCP21ΔD2628-S2664), D2628-S2664 alone (see FIG. 11), pol-C or GST alone, and integrin α9β1 was added and allowed to bind thereto in the presence of 1 mM MnCl2 or 10 mM EDTA.
To further narrow down the region responsible for binding to integrin α9β1, the extra 37-amino acid segment of CCP21 was divided into smaller segments, of which GST fusion proteins were produced. Microtiter plates were coated with eight kinds of segments including CCP21, pol-C and GST alone, and integrin α9β1 was added and allowed to bind thereto in the presence of 1 mM MnCl2 or 10 mM EDTA.
To identify the residues involved in binding to Integrin α9β1, alanine scanning mutants and N-terminal or C-terminal deletion mutants of D2634-L2645 were produced as GST fusion proteins. […]

[3] = test system: HT1080 cells; experiment: Cell adhesion assay on coated plates (HT1080 cells); type: cell-based, human; conditions: data not shown

Substance: polydom: recombinant mouse SVEP1 (SEQ ID NO: 2), ECM protein, ligand for integrin α9β1
- adhesion of A549 cells [1]: did not adhere
- binding of recombinant integrin α9β1 to coated protein ([2]; 1 mM MnCl2, FIG. 7): bound
- binding of recombinant integrin α9β1 in the presence of EDTA ([2]; 10 mM EDTA, FIG. 7): completely abrogated
- adhesion of HT1080 cells [3]: did not adhere
